Experimental data published in patent US20220033407A1, “N-(pyridin-2-ylsulfonyl)cyclopropanecarboxamide Derivatives and their Use in the Treatment of Disease” (NOVARTIS AG, priority 2018, published 2022).

Tests used:
[1] = target: T1, delF508-CFTR-HRP (Homo sapiens, UniProt P13569, DEL508-508); experiment: Measurement of delF508-CFTR-HRP surface expression in CFBE41o- cells (HRP luminescence); assay type: cell-based; conditions: for Emax: CFBE41o-, read-out: DelF508-CFTR-HRP Amax %; for EC50: mean of at least two replicates;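 as to DelF508-CFTR-HRP Amax %: percent efficacy relative to a reference CFTR corrector compound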
T1 construct: expressed in transfected cells
T1 sequence (P13569 with tags, fused parts or gaps DEL508-508): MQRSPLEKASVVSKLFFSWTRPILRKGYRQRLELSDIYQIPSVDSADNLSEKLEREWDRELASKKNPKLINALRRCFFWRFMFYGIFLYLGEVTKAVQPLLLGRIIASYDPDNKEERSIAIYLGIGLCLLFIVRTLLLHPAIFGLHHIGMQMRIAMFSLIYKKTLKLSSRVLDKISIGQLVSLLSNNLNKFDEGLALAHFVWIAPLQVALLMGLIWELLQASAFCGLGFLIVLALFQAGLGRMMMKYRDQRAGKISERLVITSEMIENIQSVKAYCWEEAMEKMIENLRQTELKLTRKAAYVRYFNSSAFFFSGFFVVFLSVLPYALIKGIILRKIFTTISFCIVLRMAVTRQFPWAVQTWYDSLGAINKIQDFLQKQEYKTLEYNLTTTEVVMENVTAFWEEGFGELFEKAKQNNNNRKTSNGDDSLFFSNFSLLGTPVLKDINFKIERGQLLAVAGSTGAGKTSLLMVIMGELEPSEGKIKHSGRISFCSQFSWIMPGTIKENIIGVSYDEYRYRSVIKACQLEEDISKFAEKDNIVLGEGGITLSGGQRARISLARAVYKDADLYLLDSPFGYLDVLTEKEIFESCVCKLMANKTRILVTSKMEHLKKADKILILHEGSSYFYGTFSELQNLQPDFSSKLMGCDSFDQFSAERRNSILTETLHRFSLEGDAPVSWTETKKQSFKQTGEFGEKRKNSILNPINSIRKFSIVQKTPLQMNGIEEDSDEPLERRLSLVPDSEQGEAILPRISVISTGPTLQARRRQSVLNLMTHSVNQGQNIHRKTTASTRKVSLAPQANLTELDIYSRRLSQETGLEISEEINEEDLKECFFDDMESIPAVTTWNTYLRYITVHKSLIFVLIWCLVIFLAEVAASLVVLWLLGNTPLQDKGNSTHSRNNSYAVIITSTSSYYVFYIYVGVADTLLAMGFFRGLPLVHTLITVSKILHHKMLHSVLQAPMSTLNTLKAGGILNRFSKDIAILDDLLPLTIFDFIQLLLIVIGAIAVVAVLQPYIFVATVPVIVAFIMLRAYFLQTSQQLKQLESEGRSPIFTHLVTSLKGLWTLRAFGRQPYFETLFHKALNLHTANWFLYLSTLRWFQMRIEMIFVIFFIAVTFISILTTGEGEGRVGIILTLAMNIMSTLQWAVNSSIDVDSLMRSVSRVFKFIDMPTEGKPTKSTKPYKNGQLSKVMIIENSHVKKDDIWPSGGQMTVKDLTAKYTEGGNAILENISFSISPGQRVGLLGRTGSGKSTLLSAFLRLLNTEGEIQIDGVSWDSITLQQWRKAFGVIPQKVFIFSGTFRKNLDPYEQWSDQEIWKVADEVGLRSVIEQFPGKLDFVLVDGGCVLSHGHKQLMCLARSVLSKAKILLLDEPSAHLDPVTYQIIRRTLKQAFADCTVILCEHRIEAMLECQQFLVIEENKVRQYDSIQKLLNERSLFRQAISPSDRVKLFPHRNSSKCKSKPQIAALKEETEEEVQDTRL
How it was run: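 Stably transfected CFBE41o- cells carrying HRP in the fourth extracellular loop of delF508-CFTR, induced with 500 ng/mL doxycycline for 48 h, then compound-treated 24 h at 37° C (10-point, 3-fold, top 10 μM). Surface HRP detected by luminescent substrate; EC50 from logistic fit, triplicates, normalized to lowest-concentration median.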

[2] = target: T2, delF508-CFTR (Homo sapiens, UniProt P13569, DEL508-508); experiment: delF508-CFTR functional activity in primary human bronchial epithelial cells (HBECs), Multi-Transepithelial Clamp Circuit (MTECC-24) assay, equivalent short circuit current; assay type: cell-based; conditions: primary CF HBECs; for MTECC24 CFHBEC-Amax %: relative to reference combination 2 μM 3-(6-(1-(2,2-difluorobenzo[d][1,3]dioxol-5-yl)cyclopropane-1-carboxamido)-3-methylpyridin-2-yl)benzoic acid (24 h) + 0.5 μM N-(2,4-di-tert-butyl-5-hydroxyphenyl)-4-oxo-1,4-dihydroquinoline-3-carboxamide; for EC50: test compound added 24 h before assay, potentiator (S)-3-amino-6-methoxy-N-(3,3,3-trifluoro-2-hydroxy-2-methylpropyl)-5-(trifluoromethyl)picolinamide present at assay, mean of at least two replicates, read-out: MTECC24 CFHBEC-EC50
T2 construct: functional activity of the CFTR channel (Chloride ion transport) in patient derived primary human bronchial epithelial cells; host or cells: patient-derived primary human bronchial epithelial cells (HBECs), delF508-CFTR
T2 sequence (P13569 with tags, fused parts or gaps DEL508-508): as above
How it was run: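 Patient-derived delF508 HBECs, grown at air-liquid interface about two weeks, were corrected with compound basolaterally for 24 h. Compound was then re-added apically and basolaterally in HEPES pH7.4 assay medium, with sequential modulators including forskolin and the picolinamide potentiator. Ieq was recorded, normalised to 0.1% DMSO wells, and EC50 fitted from 10-point curves.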

Emax [1] [%] | EC50 [1] [nM] | MTECC24 CFHBEC-Amax % [2] [%] | EC50 [2] [nM] | Structure (SMILES)
330 | 1850 | 66 | 4 | Cc1ccc(C2CCCCC2)c(OC2(C(=O)NS(=O)(=O)c3cccc(N4CCC(C)(NC(=S)NC5CC5)CC4)n3)CC2)c1 [Example 2-23, 1-(2-Cyclohexyl-5-methylphenoxy)-N-((6-(4-(3-cyclopropylthioureido)-4-methylpiperidin-1-yl)pyridin-2-yl)sulfonyl)cyclopropanecarboxamide]
591 | 1270 | 62 | 5 | Cc1ccc(C2CCCCC2)c(OC2(C(=O)NS(=O)(=O)c3cccc(N4CCC(C)(NC(=O)OC(C)(C)C)C4)n3)CC2)c1 (centres unmarked) [Example 2-24, Tert-butyl (1-(6-(N-(1-(2-cyclohexyl-5-methylphenoxy)cyclopropanecarbonyl)sulfamoyl)pyridin-2-yl)-3-methylpyrrollidin-3-yl)carbamate]
661 | 1440 | 89 | 1 | Cc1ccc(C2CCCCC2)c(OC2(C(=O)NS(=O)(=O)c3cccc(N(C)C)n3)CC2)c1 [Example 2-25, 1-(2-Cyclohexyl-5-methylphenoxy)-N-((6-(dimethylamino)pyridin-2-yl)sulfonyl)cyclopropanecarboxamide]
500 | 1410 | 89 | 6 | Cc1ccc(C2CCCCC2)c(OC2(C(=O)NS(=O)(=O)c3cccc(N4CCOC[C@H]4C)n3)CC2)c1 [Example 2-26, (R)-1-(2-Cyclohexyl-5-methylphenoxy)-N-((6-(3-methylmorpholino)pyridin-2-yl)sulfonyl)cyclopropanecarboxamide]
181 | 2580 | 104 | 70 | Cc1ccc(C2CCCCC2)c(OC2(C(=O)NS(=O)(=O)c3cccc(N4CCC(C)(N)C4)n3)CC2)c1 (centres unmarked) [Example 2-27, N-((6-(3-Amino-3-methylpyrrolidin-1-yl)pyridin-2-yl)sulfonyl)-1-(2-cyclohexyl-5-methylphenoxy)cyclopropanecarboxamide]
429 | 530 | 83 | 49 | Cc1ccc(C2CCCCC2)c(OC2(C(=O)NS(=O)(=O)c3cccc(N4CCC5(CC4)CC(=O)c4cc(F)ccc4O5)n3)CC2)c1 [Example 2-28, 1-(2-Cyclohexyl-5-methylphenoxy)-N-((6-(6-fluoro-4-oxospiro[chroman-2,4′-piperidin]-1′-yl)pyridin-2-yl)sulfonyl)cyclopropanecarboxamide]
626 | 870 | 76 | 63 | Cc1ccc(C2CCCCC2)c(OC2(C(=O)NS(=O)(=O)c3cccc(N4CC5(CN(C(=O)OC(C)(C)C)C5)C4)n3)CC2)c1 [Example 2-29, Tert-butyl 6-(6-(N-(1-(2-cyclohexyl-5-methylphenoxy)cyclopropanecarbonyl)sulfamoyl)pyridin-2-yl)-2,6-diazaspiro[3.3]heptane-2-carboxylate]
243 | 1790 | 69 | 23 | Cc1ccc(C2CCCCC2)c(OC2(C(=O)NS(=O)(=O)c3cccc(N4CC5(CCN5C(=O)OC(C)(C)C)C4)n3)CC2)c1 [Example 2-30, Tert-butyl 6-(6-(N-(1-(2-cyclohexyl-5-methylphenoxy)cyclopropanecarbonyl)sulfamoyl)pyridin-2-yl)-1,6-diazaspiro[3.3]heptane-1-carboxylate]
96 | 3250 | 89 | 421 | Cc1ccc(C2CCCCC2)c(OC2(C(=O)NS(=O)(=O)c3cccc(N4CCNCC4)n3)CC2)c1 [Example 2-31, 1-(2-Cyclohexyl-5-methylphenoxy)-N-((6-(piperazin-1-yl)pyridin-2-yl)sulfonyl)cyclopropanecarboxamide]
114 | 3960 | 46 | 66 | Cc1ccc(C2CCCCC2)c(OC2(C(=O)NS(=O)(=O)c3cccc(N4CCNC(=O)C4)n3)CC2)c1 [Example 2-33, 1-(2-Cyclohexyl-5-methylphenoxy)-N-((6-(3-oxopiperazin-1-yl)pyridin-2-yl)sulfonyl)cyclopropanecarboxamide]
366 | 1100 | 57 | 15 | Cc1ccc(C2CCCCC2)c(OC2(C(=O)NS(=O)(=O)c3cccc(N4CCN(C(=O)OC(C)(C)C)CC4)n3)CC2)c1 [Example 2-34, Tert-butyl 4-(6-(N-(1-(2-cyclohexyl-5-methylphenoxy)cyclopropanecarbonyl)sulfamoyl)pyridin-2-yl)piperazine-1-carboxylate]
235 | 2420 | 76 | 108 | Cc1ccc(C2CCCCC2)c(OC2(C(=O)NS(=O)(=O)c3cccc(N[C@H]4C[C@H](O)C4)n3)CC2)c1 [Example 2-35, 1-(2-Cyclohexyl-5-methylphenoxy)-N-((6-((trans-3-hydroxycyclobutyl)amino)pyridin-2-yl)sulfonyl)cyclopropane-1-carboxamide]
432 | 2090 | 152 | 44 | Cc1ccc(C2CCCCC2)c(OC2(C(=O)NS(=O)(=O)c3cccc(N[C@H]4C[C@@H](O)C4)n3)CC2)c1 [Example 2-36, 1-(2-Cyclohexyl-5-methylphenoxy)-N-((6-((cis-3-hydroxycyclobutyl)amino)pyridin-2-yl)sulfonyl)cyclopropane-1-carboxamide]
306 | 1350 | 103 | 3 | Cc1ccc(C2CCCCC2)c(OC2(C(=O)NS(=O)(=O)c3cccc(N4CCNC(C(F)(F)F)C4)n3)CC2)c1 (centres unmarked) [Example 2-37, 1-(2-Cyclohexyl-5-methylphenoxy)-N-((6-(3-(trifluoromethyl)piperazin-1-yl)pyridin-2-yl)sulfonyl)cyclopropanecarboxamide]
383 | 1800 | 67 | 2 | [2H]C1([2H])OC([2H])([2H])C([2H])([2H])N(c2cccc(S(=O)(=O)NC(=O)C3(Oc4cc(C)ccc4C4CCCCC4)CC3)n2)C1([2H])[2H] [Example 2-39, 1-(2-Cyclohexyl-5-methylphenoxy)-N-((6-(morpholino-d8)pyridin-2-yl)sulfonyl)cyclopropane-1-carboxamide]
123 | 3790 | 76 | 121 | Cc1ccc(C2CCCCC2)c(OC2(C(=O)NS(=O)(=O)c3cccc(N4CCNC(=O)CC4)n3)CC2)c1 [Example 2-40, 1-(2-Cyclohexyl-5-methylphenoxy)-N-((6-(5-oxo-1,4-diazepan-1-yl)pyridin-2-yl)sulfonyl)cyclopropanecarboxamide]
142 | 2960 | 54 | 654 | Cc1ccc(C2CCCCC2)c(OC2(C(=O)NS(=O)(=O)c3cccc(N4CCC(N)CC4)n3)CC2)c1 [Example 2-41, N-((6-(4-Aminopiperidin-1-yl)pyridin-2-yl)sulfonyl)-1-(2-cyclohexyl-5-methylphenoxy)cyclopropanecarboxamide]
